What is called inhibition is the drop in the measured response relative to a control, in per cent.

Inhibition data for 11 compounds are collected here from ChEMBL document CHEMBL1147881, “Synthesis and herbicidal activity of novel pyrazolo[3,4-d]pyrimidin-4-one derivatives containing aryloxyphenoxypropionate moieties” (2007).

Common to all, as to format: functional
In experiment [1] the test system is Echinochloa crus-galli. Briefly: Herbicidal activity against barnyard grass assessed as inhibition of root growth at 10 mg/L relative to control.
Experiment [2] deals with Brassica napus. Briefly: Herbicidal activity against rape assessed as inhibition of root growth at 10 mg/L relative to control.
Experiment [3] concerns Echinochloa crus-galli. Briefly: Herbicidal activity against barnyard grass assessed as inhibition of stalk growth at 10 mg/L relative to control.
Experiment [4] concerns Echinochloa crus-galli. The experiment can be described thus: Herbicidal activity against barnyard grass assessed as inhibition of root growth at 100 mg/L relative to control.
The subject of experiment [5] is Brassica napus. The experiment can be described thus: Herbicidal activity against rape assessed as inhibition of stalk growth at 10 mg/L relative to control.
Experiment [6] concerns Brassica napus. The experiment can be described thus: Herbicidal activity against rape assessed as inhibition of stalk growth at 100 mg/L relative to control.
The subject of experiment [7] is Echinochloa crus-galli. The experiment can be described thus: Herbicidal activity against barnyard grass assessed as inhibition of stalk growth at 100 mg/L relative to control.
For experiment [8], the system named is Brassica napus. Briefly: Herbicidal activity against rape assessed as inhibition of root growth at 100 mg/L relative to control.

As for `CCCOC(=O)C(C)Oc1ccc(Oc2nc3c(c(S(C)(=O)=O)nn3-c3ccccc3)c(=O)n2C(=O)Nc2ccccc2Cl)cc1` (stereo not drawn), the inhibition at 10 µg/mL in experiment [1] was 50%; in experiment [2] it was 17.4%; in experiment [3], 16.7%; in experiment [5], -17.8%. The inhibition at 100 µg/mL in experiment [4] stood at 80%; in experiment [6] it was 42.2%; in experiment [7] it was 23.3%; in experiment [8], 67.4%.
Regarding `COC(=O)C(C)Oc1ccc(Oc2nc3c(c(S(C)(=O)=O)nn3-c3ccccc3)c(=O)n2C(=O)Nc2ccccc2F)cc1` (stereo not drawn), the inhibition at 10 µg/mL in experiment [1] was 33.3%; in experiment [2] it was 16.3%; in experiment [3], 10.5%; in experiment [5] it was 0%. The inhibition at 100 µg/mL in experiment [4] is 53.3%; in experiment [6], 0%; in experiment [7], -21%; in experiment [8] it was 28%.
For `COC(=O)C(C)Oc1ccc(Oc2nc3c(c(SC)nn3-c3ccccc3)c(=O)n2C(=O)Nc2ccccc2)cc1` (stereo not drawn), the inhibition at 10 µg/mL in experiment [1] amounted to 63%; in experiment [2], 40.2%; in experiment [3], 44.8%; in experiment [5], 20.5%. For the same compound, the inhibition at 100 µg/mL in experiment [4] stood at 93.5%; in experiment [6] it was 76.9%; in experiment [7], 68.9%; in experiment [8] it was 96.1%.
With `CCOC(=O)C(C)Oc1ccc(Oc2nc3c(c(SC)nn3-c3ccccc3)c(=O)n2C(=O)Nc2ccccc2)cc1` (stereo not drawn), the inhibition at 10 µg/mL in experiment [1] is 57.7%; in experiment [2], 57.4%; in experiment [3] it was 12.9%; in experiment [5], 12.9%. Moreover, the inhibition at 100 µg/mL is 88.5% in experiment [4], 46.2% in experiment [6], 32.3% in experiment [7] and 86.1% in experiment [8].
As for `CCOC(=O)C(C)Oc1ccc(Oc2nc3c(c(S(C)(=O)=O)nn3-c3ccccc3)c(=O)n2C(=O)Nc2cccc(C)c2)cc1` (stereo not drawn), the inhibition at 10 µg/mL in experiment [1] was 54.3%; in experiment [2] it was 51%; in experiment [3], 3.4%; in experiment [5], 17.9%. Besides, the inhibition at 100 µg/mL stood at 95.6% in experiment [4], 74.4% in experiment [6], 51.7% in experiment [7] and 98% in experiment [8].
Turning to `CCOC(=O)C(C)Oc1ccc(Oc2nc3c(c(S(=O)(=O)Cc4ccccc4)nn3-c3ccccc3)c(=O)n2C(=O)Nc2cccc(C)c2)cc1` (stereo not drawn), the inhibition at 10 µg/mL in experiment [1] worked out at 50%; in experiment [2], 9.8%; in experiment [3], 13.3%; in experiment [5], 6.7%. For the same compound, the inhibition at 100 µg/mL in experiment [4] was found to be 72.5%; in experiment [6], 6.7%; in experiment [7], 16.7%; in experiment [8] it was 34.8%.
As to `CCOC(=O)COc1ccc(Oc2nc3c(c(SCc4ccccc4)nn3-c3ccccc3)c(=O)n2C(=O)Nc2cccc(C)c2)cc1`, the inhibition at 10 µg/mL in experiment [1] came out at 66.7%; in experiment [2], 20.6%; in experiment [3] it was 5.3%; in experiment [5], 20%. Further, the inhibition at 100 µg/mL in experiment [4] was 75.5%; in experiment [6], 24%; in experiment [7], -10.5%; in experiment [8], 64.1%.
With `CCOC(=O)C(C)Oc1ccc(Oc2nc3c(c(SC)nn3-c3ccccc3)c(=O)n2C(=O)Nc2cccc(C)c2)cc1` (stereo not drawn), the inhibition at 10 µg/mL was 59.6% in experiment [1], 46.5% in experiment [2], -12.9% in experiment [3] and 9.6% in experiment [5]. For the same compound, the inhibition at 100 µg/mL in experiment [4] stood at 88.5%; in experiment [6] it was 63.5%; in experiment [7] it was 0%; in experiment [8] it was 97%.
`COC(=O)C(C)Oc1ccc(Oc2nc3c(c(S(C)(=O)=O)nn3-c3ccccc3)c(=O)n2C(=O)Nc2ccccc2)cc1` (stereo not drawn): the inhibition at 10 µg/mL in experiment [1] turned out to be 66.7%; in experiment [2], 25%; in experiment [3], 5.3%; in experiment [5], 13.3%. Besides, the inhibition at 100 µg/mL worked out at 93.3% in experiment [4], 48.9% in experiment [6], 31.6% in experiment [7] and 80.4% in experiment [8].
Take `CCCOC(=O)C(C)Oc1ccc(Oc2nc3c(c(SC)nn3-c3ccccc3)c(=O)n2C(=O)Nc2ccccc2Cl)cc1` (stereo not drawn): the inhibition at 10 µg/mL stood at 53.4% in experiment [1], 5.5% in experiment [2], 25.8% in experiment [3] and 10.6% in experiment [5]. Besides, the inhibition at 100 µg/mL in experiment [4] came to 64.3%; in experiment [6], 8.5%; in experiment [7], 25.8%; in experiment [8] it was 36.7%.
On to `CCOC(=O)C(C)Oc1ccc(Oc2nc3c(c(SCc4ccccc4)nn3-c3ccccc3)c(=O)n2C(=O)Nc2cccc(C)c2)cc1` (stereo not drawn), for which the inhibition at 10 µg/mL in experiment [1] was 33.3%; in experiment [2], 24.4%; in experiment [3], -6.4%; in experiment [5], -2.1%. Further, the inhibition at 100 µg/mL is 61.9% in experiment [4], 10.6% in experiment [6], -6.4% in experiment [7] and 32.2% in experiment [8].
